Values quoted from earlier work, collected in patent US9205054B2 (LOSAN PHARMA GMBH, priority 2005, dated 2015).
Read-outs that look alike come from different tables or passages of the source.

How the values were obtained:
[1] = 0.1 molar hydrochloric acid solution, after one hour

solubility (pH 1-5): under 0.1 g/l
solubility (pH 7.2): about 20 g/l
dissolved ibuprofen [1]: 10%
SMILES: CC(C)Cc1ccc(C(C)C(=O)O)cc1 (racemic) [Ibuprofen, 2-(4-isobutylphenyl)propionic acid]
